What is called pIC50 is −log10 of the IC50, conventionally taken in molar units. A higher pIC50 goes with a low IC50.

Series [1] is described as follows: Pharmacokinetic properties of test compound in mice (oral). The series is classed as in vivo, C57BL male mice. Conditions: mouse; for oral plasma systemic exposure (AUC0-inf), in words / pharmacokinetic properties in rodent mice, in words: oral. The text has this: In this study, C57BL male mice were selected as the test animals, and the LC/MS/MS method was used to quantitatively determine the drug concentration in the plasma of the test compound and the reference compound administered orally to evaluate the pharmacokinetic profile of the test compound in mice.
[…] (C57) mice (male, 20-30 g, 7-10 weeks old, from Beijing Vital River or Shanghai SLAC).
A clear solution or suspension of the test compound was administrated to C57 mice (fasted overnight) by oral gavage. Blood was collected from jugular vein at pre-dose and 0.5, 1, 2, 4, 6, 8, 24 hours post-dose, the collected blood samples were placed in an anticoagulant tube (Jiangsu Kangjian Medical Co., Ltd.) supplemented with EDTA-K2, and the mixture was vortexed and centrifuged at 13000 rpm for 10 minutes. The LC-MS/MS method was used to determine the plasma concentration, and the relevant pharmacokinetic parameters were calculated using the non-compartmental model linear logarithmic trapezoidal method by WinNonlin™ Version 6.3 (Pharsight, Mountain View, Calif.).

Series [2] concerns human lymphoma OCI-LY10 cells. Put plainly: In vivo pharmacodynamic study in subcutaneous xenograft tumor CB-17 SCID model of human lymphoma OCI-LY10 cells. Also noted: species or system CB-17 SCID mouse. As for the experimental part:
Cells culture: Human lymphoma OCI-LY10 cells (National Cancer Institute) were cultured in a monolayer method in vitro (culture conditions: RPMI-1640 medium with 10% fetal bovine serum, 100 U/mL penicillin and 100 μg/mL streptomycin; 37° C., 5% CO2 incubator). Pancreatin-EDTA was used twice a week for conventional digestion and passage. When a cell saturation of 80%-90% and the required cell number were achieved, the cells were collected, counted and seeded. Animal: CB-17 SCID mouse, female, 6-8 weeks old, weighing 18-22 grams. 0.2 mL (10×10^6 cells) of OCI-LY10 cells (with matrigel in a volume ratio of 1:1) were subcutaneously inoculated on the right back of each mouse. The grouping and administration were started when the average tumor volume reached about 139 mm^3. One dosing cycle was seven days, and the compound was administered once a day with an interval of 24 hours. The test compound was administered orally for a total of four cycles. The dose of the test compound WX001 was 60 mg/kg. The tumor volume was measured twice a week with a two-dimensional caliper, expressed in cubic millimeters, and calculated by the following formula: V=0.5a×b^2, in which a and b were the long diameter and short diameter of the tumor, respectively. The anti-tumor efficacy was determined by dividing the average increase of tumor volume of animals treated with the compound by that of untreated animals. TGI: Tumor Growth Inhibition. TGI (%)=[1−(average tumor volume at the end of administration in a treatment group−average tumor volume at the beginning of administration in this treatment group)/(average tumor volume at the end of administration in the solvent control group−average tumor volume at the beginning of administration in the solvent control group)]×100%.

Series [3] concerns OCI-LY10. In words: Anti-proliferative effect in lymphoma cell line OCI-LY10 (CellTiter-Glo). Conditions: Homo sapiens, OCI-Ly10, 120 h; incubate with the compound for 5 days. Format: cell-based. The protocol:
Experiment object: In this experiment, the inhibitory effects of the test compounds on cell proliferation in the diffuse large B-cell lymphoma cell lines OCI-LY10 and DOHH2, and the mantle cell lymphoma cell line Mino were tested.
The tumor cell lines were cultured in an incubator at 37° C. and 5% CO2 under the above-mentioned culture conditions. The cells were passaged regularly, and cells in the logarithmic growth phase were taken for plating.
(3). 90 μL of cell suspension was added to each well of the culture plate as shown in the table above, and cell-free culture solution was added to the blank control well.
(4). The culture plates were incubated overnight at 37° C., 5% CO2, and 100% relative humidity in an incubator.
A 400× compound working solution was prepared. The compound was gradually diluted with DMSO from the highest concentration to the lowest concentration. The compound was freshly formulated when use every time.
(1). Formulation of 10× compound working solution: 76 μL of cell culture solution was added to a 96-well plate with a V-shaped bottom, and 4 μL of the compound from a 200× compound solution plate was pipetted and added to the cell culture solution in the 96-well plate. 4 μL of DMSO was added to the vehicle control and blank control. After adding the compound or DMSO, a multi-channel pipette was used for mixing well. 78 μL of cell culture solution was added to a 96-well plate with a V-shaped bottom, and 2 μL of the compound from the 400× compound storage solution was pipetted and added to the cell culture solution in the 96-well plate. 2 μL of DMSO was added to the vehicle control and blank control. After adding the compound or DMSO, a multi-channel pipette was used for mixing well.
(2). Dosing: 10 μL of the 10× compound working solution was taken and added to the cell culture plate. 10 μL mixture of DMSO and cell culture solution was added to the vehicle control and blank control.
(3). The 96-well cell plates were placed back into the incubator to culture OCI-LY10 (5 times dilution, incubate with the compound for 5 days), DOHH2 (3 times dilution, incubate with the compound for 4 days), Mino (3 times dilution, incubate with the compound for 4 days).
The following steps followed the instructions of Promega CellTiter-Glo Luminescence Cell Viability Detection Kit (Promega-G7573).
(6). 50 μL (equal to half the volume of cell culture solution in each well) of CellTiter-Glo working solution was added into each well. The cell plates were wrapped with aluminum foil to protect the cell plate from light.
(9). The luminous signal was detected on the 2104 EnVision plate reader.
The following formula was used to calculate the inhibition rate (IR) of the test compound: IR (%)=(RLU of vehicle control−RLU of compound)/(RLU vehicle control−RLU blank control)*100%. […]

Series [4] relates to DOHH2. Put plainly: Anti-proliferative effect in lymphoma cell line DOHH2 (CellTiter-Glo). Conditions: Homo sapiens, DOHH-2, 96 h; incubate with the compound for 4 days. The series is classed as cell-based. The protocol: (§1) Experiment object: In this experiment, the inhibitory effects of the test compounds on cell proliferation in the diffuse large B-cell lymphoma cell lines OCI-LY10 and DOHH2, and the mantle cell lymphoma cell line Mino were tested. The tumor cell lines were cultured in an incubator at 37° C. and 5% CO2 under the above-mentioned culture conditions. The cells were passaged regularly, and cells in the logarithmic growth phase were taken for plating. (3). 90 μL of cell suspension was added to each well of the culture plate as shown in the table above, and cell-free culture solution was added to the blank control well. (4). The culture plates were incubated overnight at 37° C., 5% CO2, and 100% relative humidity in an incubator. A 400× compound working solution was prepared. The compound was gradually diluted with DMSO from the highest concentration to the lowest concentration. […] The following steps followed the instructions of Promega CellTiter-Glo Luminescence Cell Viability Detection Kit (Promega-G7573). […] The luminous signal was detected on the 2104 EnVision plate reader. […] The inhibition rate of different concentrations of the compound was calculated in Excel, and then GraphPad Prism software was used to draw the inhibition curve and calculate the relevant parameters, including the minimum inhibition rate, the maximum inhibition rate and IC50.
In general terms: Cellular ATP, detected with luciferase, serves as a proxy for viable cell number.

Series [5] concerns Mino. Put plainly: Anti-proliferative effect in lymphoma cell line Mino (CellTiter-Glo). The series is classed as cell-based. Conditions: Homo sapiens, 96 h, incubate with the compound for 4 days. As for the experimental part:
as §1

Setting [6] is: 60 mg/kg oral once a day, Day 27.

The structures appear in SMILES notation. pIC50: −log10 of the molar value. Counter-ions that a name gives are not always drawn.

With `CN(C)CCOc1ccc2cc3occ(C4CCC(=O)NC4=O)c3cc2c1` (stereo not drawn) [Hydrochloride salt of WX022], in series [1], the “oral plasma systemic exposure (AUC0-inf), in words” value is “higher” and the “pharmacokinetic properties in rodent mice, in words” value is reported as “better pharmacokinetic properties”. For the same molecule, in series [1] (oral 10 mg/kg, plasma), the “Area under the concentration-time curve (0-inf)” value was 7.42 µM·h.
As for `O=C1CCC(c2coc3cc4ccccc4cc23)C(=O)N1` (stereo not drawn) [WX001], the “Tumor volume (Day 0)” value in series [2] (60 mg/kg oral once a day, Day 0, start of administration) is given as 139 mm^3. Also, in series [2] (setting [6]), the “TGI (Day 27)” value came out at 105.5%. Moreover, in series [2] (setting [6]), the “Tumor volume (Day 27)” value is given as 87 mm^3. Besides, the “tumor-shrinking effect, in words” value in series [2] (human lymphoma OCI-LY10 model) was “significant tumor-shrinking effect”. Further, the figures for the pIC50 in series [3], in series [4] and in series [5] were 7.55, 7.20 and 7.14, respectively.
In series [3], `O=C1CCC(c2coc3cc4c(cc23)OCO4)C(=O)N1` (stereo not drawn) [WX002] had a negative-log IC50 (pIC50) of 7.07.
For the molecule `O=C1CCC(c2coc3cc4c(cc23)OCCN4)C(=O)N1` (stereo not drawn) [WX003], the pIC50 in series [3] was 7.08.
The molecule `Cc1nc2cc3occ(C4CCC(=O)NC4=O)c3cc2o1` (stereo not drawn) [WX005] showed a pIC50 in series [3] of 8.22.
Regarding `O=C1CCC(c2coc3cc4ccc(OCCN5CCOCC5)cc4cc23)C(=O)N1` (stereo not drawn) [WX015], in series [1], the “oral plasma systemic exposure (AUC0-inf), in words” value is “higher” and the “pharmacokinetic properties in rodent mice, in words” value was “better pharmacokinetic properties”. Also, in series [1] (oral 10 mg/kg, plasma), the “Area under the concentration-time curve (0-inf)” value turned out to be 13.29 µM·h, the Peak concentration was determined as 5.14 µM and the Time to peak is 0.50 h.

The record behind these values is patent publication US11319330B2, “Tricyclic furan-substituted piperidinedione compound” (MEDSHINE DISCOVERY INC., priority 2018, dated 2022).
